Like-named read-outs stand apart in the source and are kept apart here.
Columns and labels:
[1] = log P by HPLC on reversed-phase columns (EEC Directive 79/831 Annex V.A8); format: physicochemical
[2] = tested on: caterpillars of the armyworm (Spodoptera frugiperda); assay: Spodoptera frugiperda test (SPODFR spray treatment); format: in vivo; conditions: Spodoptera frugiperda, 168 h, read-out: activity in % (caterpillars killed)
[3] = tested on: larvae of the mustard beetle (Phaedon cochleariae); assay: Phaedon test (PHAECO spray treatment); conditions: Phaedon cochleariae, 168 h, read-out: activity in % (beetle larvae killed)
[4] = reversed-phase C18 HPLC column, pH 2.7, HPLC reversed-phase C18, acidic range pH 2.7 (HCOOH), only or first value of the cell, read-out: log P
[5] = application rate 100 g/ha, after 7 days

| chromatographic logP [1, 4] | Structure (SMILES) | chromatographic logP ([1]; pH 2.7, log P) | pest or weed control at 100 g/ha [2] | pest or weed control at 100 g/ha [3] | pest or weed control at 100 g/ha [2, 5] |
| --- | --- | --- | --- | --- | --- |
|  | Cc1cc(C#N)cc(C(=O)NCc2ccc(Cl)nc2)c1NC(=O)c1cc(Cn2nnc(C(F)(F)F)n2)nn1-c1ncccc1Cl [Example 66] | 3.11 | 100% | 100% |  |
| 3.91 | Cc1cc(C#N)cc(C(=O)NC(C)c2ccc(Cl)cc2)c1NC(=O)c1cc(Cn2nnc(C(F)(F)F)n2)nn1-c1ncccc1Cl (stereo not drawn) [Example 67] |  |  | 100% | 100% |
| 3.69 | Cc1cc(C#N)cc(C(=O)NCc2cccc(S(F)(F)(F)(F)F)c2)c1NC(=O)c1cc(Cn2nnnc2C(F)(F)F)nn1-c1ncccc1Cl [Example 68] |  |  | 100% | 100% |
| 3.77 | Cc1cc(C#N)cc(C(=O)NCc2ccccc2)c1NC(=O)c1cc(Cn2nnc(C(F)(F)F)n2)nn1-c1ccccc1Cl [Example 71] |  |  | 100% | 100% |
|  | Cc1cc(Cl)cc(C(=O)Nc2ccc(Cl)cc2)c1NC(=O)c1cc(Cn2nnc(C(F)(F)F)n2)nn1-c1ncccc1Cl [Example 73] | 4.17 | 100% | 100% |  |
| 3.68 | Cc1cc(C#N)cc(C(=O)NC(C)c2ccccc2)c1NC(=O)c1cc(Cn2nnc(C(F)(F)F)n2)nn1-c1ccccc1Cl (stereo not drawn) [Example 74] |  |  | 100% | 100% |
| 3.76 | Cc1cc(C#N)cc(C(=O)NCc2cccc(Cl)c2)c1NC(=O)c1cc(Cn2nnc(C(F)(F)F)n2)nn1-c1ccccc1Cl [Example 75] |  |  | 100% | 100% |
| 3.77 | COc1ccc(CNC(=O)c2cc(C#N)cc(C)c2NC(=O)c2cc(Cn3nnc(C(F)(F)F)n3)nn2-c2ccccc2Cl)cc1 [Example 76] |  |  | 100% | 100% |
| 4.42 | Cc1cc(C#N)cc(C(=O)NCc2ccc(Cl)cc2Cl)c1NC(=O)c1cc(Cn2nnc(C(F)(F)F)n2)nn1-c1ccccc1Cl [Example 77] |  |  | 100% | 100% |
|  | Cc1cc(Cl)cc(C(=O)NCc2ccccc2)c1NC(=O)c1cc(Cn2nnc(C(F)(F)F)n2)nn1-c1ncccc1Cl [Example 81] | 3.77 | 100% | 100% |  |
|  | Cc1cc(Cl)cc(C(=O)NCc2ccccc2Cl)c1NC(=O)c1cc(Cn2nnc(C(F)(F)F)n2)nn1-c1ncccc1Cl [Example 82] | 4.06 | 100% | 100% |  |
|  | Cc1cc(Cl)cc(C(=O)NCc2ccccc2F)c1NC(=O)c1cc(Cn2nnc(C(F)(F)F)n2)nn1-c1ncccc1Cl [Example 83] | 3.77 | 100% | 100% |  |
|  | Cc1cc(Cl)cc(C(=O)NC(C)c2ccccc2)c1NC(=O)c1cc(Cn2nnc(C(F)(F)F)n2)nn1-c1ncccc1Cl (stereo not drawn) [Example 84] | 3.92 | 100% | 100% |  |
|  | Cc1cc(Cl)cc(C(=O)N[C@H](C)c2ccccc2)c1NC(=O)c1cc(Cn2nnc(C(F)(F)F)n2)nn1-c1ncccc1Cl [Example 85] | 3.92 | 100% | 100% |  |
|  | Cc1cccc(CNC(=O)c2cc(Cl)cc(C)c2NC(=O)c2cc(Cn3nnc(C(F)(F)F)n3)nn2-c2ncccc2Cl)c1 [Example 89] | 4.08 | 100% | 100% |  |
| 4.85 | Cc1cc(Cl)cc(C(=O)NCc2ccc(C(C)(C)C)cc2)c1NC(=O)c1cc(Cn2nnc(C(F)(F)F)n2)nn1-c1ncccc1Cl [Example 91] |  |  | 100% | 100% |
|  | Cc1cc(Cl)cc(C(=O)NCc2ccc(Cl)cc2Cl)c1NC(=O)c1cc(Cn2nnc(C(F)(F)F)n2)nn1-c1ncccc1Cl [Example 92] | 4.41 | 100% | 100% |  |
|  | Cc1cc(Cl)cc(C(=O)NCc2ccc(Cl)c(Cl)c2)c1NC(=O)c1cc(Cn2nnc(C(F)(F)F)n2)nn1-c1ncccc1Cl [Example 93] | 4.37 | 100% | 100% |  |
|  | Cc1cc(Cl)cc(C(=O)NCc2cc(Cl)cc(Cl)c2)c1NC(=O)c1cc(Cn2nnc(C(F)(F)F)n2)nn1-c1ncccc1Cl [Example 94] | 4.49 | 100% | 100% |  |
| 4.23 | Cc1cc(Cl)cc(C(=O)NCc2cccc(C(F)(F)F)c2)c1NC(=O)c1cc(Cn2nnc(C(F)(F)F)n2)nn1-c1ncccc1Cl [Example 95] |  |  | 100% | 100% |

| chromatographic logP [1, 4] | Structure (SMILES) | chromatographic logP ([1]; pH 2.7, log P) | pest or weed control at 100 g/ha [2] | pest or weed control at 100 g/ha [3] | pest or weed control at 100 g/ha [2, 5] |
| --- | --- | --- | --- | --- | --- |
| 4.21 | Cc1cc(Cl)cc(C(=O)NCc2ccc(C(F)(F)F)cc2)c1NC(=O)c1cc(Cn2nnc(C(F)(F)F)n2)nn1-c1ncccc1Cl [Example 96] |  |  | 100% | 100% |
|  | Cc1cc(Cl)cc(C(=O)NCc2cccc(F)c2)c1NC(=O)c1cc(Cn2nnc(C(F)(F)F)n2)nn1-c1ncccc1Cl [Example 98] | 3.79 | 100% | 100% |  |
|  | Cc1cc(Cl)cc(C(=O)NCc2ccc(F)cc2)c1NC(=O)c1cc(Cn2nnc(C(F)(F)F)n2)nn1-c1ncccc1Cl [Example 99] | 3.81 | 100% | 100% |  |
|  | COc1ccccc1CNC(=O)c1cc(Cl)cc(C)c1NC(=O)c1cc(Cn2nnc(C(F)(F)F)n2)nn1-c1ncccc1Cl [Example 100] | 3.94 | 100% | 100% |  |
|  | COc1cccc(CNC(=O)c2cc(Cl)cc(C)c2NC(=O)c2cc(Cn3nnc(C(F)(F)F)n3)nn2-c2ncccc2Cl)c1 [Example 101] | 3.81 | 100% | 100% |  |
|  | COc1ccc(CNC(=O)c2cc(Cl)cc(C)c2NC(=O)c2cc(Cn3nnc(C(F)(F)F)n3)nn2-c2ncccc2Cl)cc1 [Example 102] | 3.76 | 100% | 100% |  |
| 4.34 | Cc1cc(Cl)cc(C(=O)NCc2ccccc2OC(F)(F)F)c1NC(=O)c1cc(Cn2nnc(C(F)(F)F)n2)nn1-c1ncccc1Cl [Example 103] |  |  | 100% | 100% |
| 4.36 | Cc1cc(Cl)cc(C(=O)NCc2cccc(OC(F)(F)F)c2)c1NC(=O)c1cc(Cn2nnc(C(F)(F)F)n2)nn1-c1ncccc1Cl [Example 104] |  |  | 100% | 100% |
|  | Cc1cc(Cl)cc(C(=O)NCc2cccc(Cl)c2Cl)c1NC(=O)c1cc(Cn2nnc(C(F)(F)F)n2)nn1-c1ncccc1Cl [Example 105] | 4.37 | 100% | 100% |  |
|  | Cc1cc(Cl)cc(C(=O)NCc2cc(Cl)ccc2Cl)c1NC(=O)c1cc(Cn2nnc(C(F)(F)F)n2)nn1-c1ncccc1Cl [Example 106] | 4.39 | 100% | 100% |  |
|  | Cc1cc(Cl)cc(C(=O)NCc2ccc(F)cc2F)c1NC(=O)c1cc(Cn2nnc(C(F)(F)F)n2)nn1-c1ncccc1Cl [Example 107] | 3.9 | 100% | 100% |  |
| 4.01 | Cc1cc(Cl)cc(C(=O)NCc2ccc(F)c(F)c2F)c1NC(=O)c1cc(Cn2nnc(C(F)(F)F)n2)nn1-c1ncccc1Cl [Example 108] |  |  | 100% | 100% |
| 3.98 | Cc1cc(Cl)cc(C(=O)NCc2cc(F)cc(F)c2F)c1NC(=O)c1cc(Cn2nnc(C(F)(F)F)n2)nn1-c1ncccc1Cl [Example 109] |  |  | 100% | 100% |
|  | Cc1cc(Cl)cc(C(=O)NC(C)c2cccc(Cl)c2)c1NC(=O)c1cc(Cn2nnc(C(F)(F)F)n2)nn1-c1ncccc1Cl (stereo not drawn) [Example 110] | 4.31 | 100% | 100% |  |
|  | Cc1cc(Cl)cc(C(=O)NC(C)c2ccc(Cl)cc2)c1NC(=O)c1cc(Cn2nnc(C(F)(F)F)n2)nn1-c1ncccc1Cl (stereo not drawn) [Example 111] | 4.3 | 100% | 100% |  |
|  | Cc1ccccc1C(C)NC(=O)c1cc(Cl)cc(C)c1NC(=O)c1cc(Cn2nnc(C(F)(F)F)n2)nn1-c1ncccc1Cl (stereo not drawn) [Example 112] | 4.2 | 100% | 100% |  |
|  | Cc1cccc(C(C)NC(=O)c2cc(Cl)cc(C)c2NC(=O)c2cc(Cn3nnc(C(F)(F)F)n3)nn2-c2ncccc2Cl)c1 (stereo not drawn) [Example 113] | 4.28 | 100% | 100% |  |
|  | Cc1ccc(C(C)NC(=O)c2cc(Cl)cc(C)c2NC(=O)c2cc(Cn3nnc(C(F)(F)F)n3)nn2-c2ncccc2Cl)cc1 (stereo not drawn) [Example 114] | 4.24 | 100% | 100% |  |
| 5.06 | Cc1cc(Cl)cc(C(=O)NC(C)c2ccc(C(C)(C)C)cc2)c1NC(=O)c1cc(Cn2nnc(C(F)(F)F)n2)nn1-c1ncccc1Cl (stereo not drawn) [Example 115] |  |  | 100% | 100% |
|  | Cc1cc(Cl)cc(C(=O)NCc2cccc(Cl)c2)c1NC(=O)c1cc(Cn2nnc(C(F)(F)F)n2)nn1-c1ncccc1Cl [Example 116] | 4.1 | 100% | 100% |  |

From patent US8791143B2, “Anthranilic diamide derivatives having cyclic side-chains” (priority 2010, dated 2014)
